Values joined by “and” are separate entries in the source; they are usually repeats but may differ in a detail not shown here. Identical values can stand only once. Toxic doses and inconclusive results are not listed.

The assay relates to L1210 leukemia ip in BDF1 mice, survival T/C. The assay is described as follows: NCI In Vivo Anticancer Drug Screen. Data for tumor model L1210 Leukemia (intraperitoneal) in B6D2F1 (BDF1) mice. Particulars: endpoint: mean survival time, higher = longer survival. An outline of the steps: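 Transplanted-tumor mice were given test agent; controls received vehicle only. Survival readings from the two groups were divided (treated over control).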

Where [1] appears, read: dose: 50.0 mg/kg/injection, schedule: Q01DX009 (ip), vehicle: Klucel (hydroxypropylcellulose) (HPC).
The mark [2] stands for this setting: dose: 100.0 mg/kg/injection, schedule: Q04DX003 (ip), vehicle: Klucel (hydroxypropylcellulose) (HPC).
The mark [3] stands for this setting: dose: 200.0 mg/kg/injection, schedule: Q04DX003 (ip), vehicle: Klucel (hydroxypropylcellulose) (HPC).
The mark [4] stands for this setting: dose: 400.0 mg/kg/injection, schedule: Q04DX003 (ip), vehicle: Klucel (hydroxypropylcellulose) (HPC).
[5] abbreviates: dose: 100.0 mg/kg/injection, schedule: Q01DX009 (ip), vehicle: Klucel (hydroxypropylcellulose) (HPC).
The mark [6] stands for this setting: dose: 200.0 mg/kg/injection, schedule: Q01DX009 (ip), vehicle: Klucel (hydroxypropylcellulose) (HPC).

Take `CC12CCC(=O)C=C1CCC1C2C(=O)CC2(C)C1CCC2(O)C(=O)CSc1ncnc2nc[nH]c12` (stereo unspecified): the T/C is 103 % of control (dose: 100.0 mg/kg/injection, schedule: Q01DX001 (sc), vehicle: steriod suspending solution); 106 % of control (dose: 200.0 mg/kg/injection, schedule: Q01DX001 (sc), vehicle: steriod suspending solution); 112 % of control (dose: 400.0 mg/kg/injection, schedule: Q01DX001 (sc), vehicle: steriod suspending solution).
Turning to `CCOC(=O)NC(=O)CC`, the T/C is, setting by setting: (dose: 100.0 mg/kg/injection, schedule: Q01DX009 (ip), vehicle: saline) 100 % of control; (dose: 100.0 mg/kg/injection, schedule: Q04DX003 (ip), vehicle: saline) 98 % of control; (dose: 200.0 mg/kg/injection, schedule: Q01DX009 (ip), vehicle: saline) 110 % of control; (dose: 200.0 mg/kg/injection, schedule: Q04DX003 (ip), vehicle: saline) 98 % of control; (dose: 400.0 mg/kg/injection, schedule: Q01DX009 (ip), vehicle: saline) 110 % of control; (dose: 400.0 mg/kg/injection, schedule: Q04DX003 (ip), vehicle: saline) 98 % of control.
As for `CCC1SC(=S)N(C(=O)c2ccc([N+](=O)[O-])cc2)C1CC` (stereo unspecified), the T/C (dose: 25.0 mg/kg/injection, schedule: Q04DX002 (ip), vehicle: Klucel (hydroxypropylcellulose) (HPC)) was 111 % of control and the T/C (dose: 50.0 mg/kg/injection, schedule: Q04DX002 (ip), vehicle: Klucel (hydroxypropylcellulose) (HPC)) was 95 % of control.
Turning to `Cc1cccc([N+](=O)[O-])c1-c1c(C)cccc1[N+](=O)[O-]`, the T/C was 102 % of control (dose: 50.0 mg/kg/injection, schedule: Q01DX001 (ip), vehicle: Klucel (hydroxypropylcellulose) (HPC)); 102 % of control (dose: 100.0 mg/kg/injection, schedule: Q01DX001 (ip), vehicle: Klucel (hydroxypropylcellulose) (HPC)); 96 % of control (dose: 200.0 mg/kg/injection, schedule: Q01DX001 (ip), vehicle: Klucel (hydroxypropylcellulose) (HPC)).
`c1ccc(Sc2cccc3ccccc23)cc1`: the T/C reads like this: (dose: 100.0 mg/kg/injection, schedule: Q01DX009 (ip), vehicle: saline with Tween-80) 109 % of control; (dose: 200.0 mg/kg/injection, schedule: Q01DX009 (ip), vehicle: saline with Tween-80) 103 % of control; (dose: 400.0 mg/kg/injection, schedule: Q01DX009 (ip), vehicle: saline with Tween-80) 103 % of control.
`O=S(=O)(c1ccc(Cl)cc1)C(F)F`: the T/C (dose: 12.5 mg/kg/injection, schedule: Q01DX009 (ip), vehicle: Klucel (hydroxypropylcellulose) (HPC)) was 89 % of control; the T/C (dose: 12.5 mg/kg/injection, schedule: Q04DX003 (ip), vehicle: Klucel (hydroxypropylcellulose) (HPC)) was 91 % of control; the T/C (dose: 25.0 mg/kg/injection, schedule: Q01DX009 (ip), vehicle: Klucel (hydroxypropylcellulose) (HPC)) was 93 % of control; the T/C (dose: 25.0 mg/kg/injection, schedule: Q04DX003 (ip), vehicle: Klucel (hydroxypropylcellulose) (HPC)) is 89 % of control; the T/C under setting [1] is 91 % of control; the T/C (dose: 50.0 mg/kg/injection, schedule: Q04DX003 (ip), vehicle: Klucel (hydroxypropylcellulose) (HPC)) is 97 % of control.
In the case of `COc1ccc(OC)c(NCCN2C(=O)c3ccccc3C2=O)c1`, the T/C is 95 % of control (dose: 100.0 mg/kg/injection, schedule: Q04DX002 (ip), vehicle: Klucel (hydroxypropylcellulose) (HPC)); 100 % of control (dose: 200.0 mg/kg/injection, schedule: Q04DX002 (ip), vehicle: Klucel (hydroxypropylcellulose) (HPC)); 100 % of control (dose: 400.0 mg/kg/injection, schedule: Q04DX002 (ip), vehicle: Klucel (hydroxypropylcellulose) (HPC)).
With `C[N+](C)(C)c1ccc(NC(=O)c2ccc(C(=O)Nc3ccc([N+](C)(C)C)cc3)cc2)cc1`, the T/C runs as follows: (dose: 0.5 mg/kg/injection, schedule: Q01DX Z (ip), vehicle: saline) 93 % of control; (dose: 1.0 mg/kg/injection, schedule: Q01DX Z (ip), vehicle: saline) 102 % of control; (dose: 2.0 mg/kg/injection, schedule: Q01DX Z (ip), vehicle: saline) 97 % of control.
In the case of `CS(=O)(=O)OCCCN(CCCOS(C)(=O)=O)c1ccc(C=Nc2ccc(-c3csc(COc4ccc(Br)cc4Br)n3)cc2)cc1`, the T/C reads like this: (dose: 100.0 mg/kg/injection, schedule: Q04DX003 (ip), vehicle: saline with Tween-80) 91 % of control; (dose: 200.0 mg/kg/injection, schedule: Q04DX003 (ip), vehicle: saline with Tween-80) 88 % of control; (dose: 400.0 mg/kg/injection, schedule: Q04DX003 (ip), vehicle: saline with Tween-80) 86 % of control.
Turning to `CC(=O)OC1CCC2(C)C(=CC=C3C2CCC2(C)C3CCC2C(C)/C=C/C(C)C(C)C)C1` (stereo unspecified), the T/C was 97 % of control (dose: 100.0 mg/kg/injection, schedule: Q04DX002 (sc), vehicle: saline with Tween-80); 93 % of control under setting [2]; 97 % of control (dose: 200.0 mg/kg/injection, schedule: Q04DX002 (sc), vehicle: saline with Tween-80); 96 % of control under setting [3]; 97 % of control (dose: 400.0 mg/kg/injection, schedule: Q04DX002 (sc), vehicle: saline with Tween-80); 93 % of control under setting [4].
In the case of `O=C(c1ccc(O)cc1O)c1cccc2ccccc12`, the T/C is 95 % of control under setting [5]; 93 % of control under setting [2]; 97 % of control under setting [6]; 95 % of control under setting [3]; 99 % of control (dose: 400.0 mg/kg/injection, schedule: Q01DX009 (ip), vehicle: Klucel (hydroxypropylcellulose) (HPC)); 93 % of control under setting [4].
`CN(CCO)C1=C(N2CC2)C(=O)C(N(C)CCO)=C(N2CC2)C1=O`: the T/C is 103 % of control (dose: 0.12 mg/kg/injection, schedule: Q01DX001 (ip), vehicle: saline); 104 % of control and 105 % of control (dose: 0.12 mg/kg/injection, schedule: Q01DX009 (ip), vehicle: saline); 119 % of control (dose: 0.24 mg/kg/injection, schedule: Q04DX003 (ip), vehicle: saline); 100 % of control (dose: 0.25 mg/kg/injection, schedule: Q01DX001 (ip), vehicle: saline); 121 % of control (dose: 0.25 mg/kg/injection, schedule: Q01DX009 (ip), vehicle: saline); 112 % of control (dose: 0.5 mg/kg/injection, schedule: Q01DX001 (ip), vehicle: saline). For the same compound, the T/C (dose: 0.55 mg/kg/injection, schedule: Q04DX003 (ip), vehicle: saline) is 122 % of control; the T/C (dose: 1.0 mg/kg/injection, schedule: Q01DX009 (ip), vehicle: saline) was 184 % of control and 214 % of control; the T/C (dose: 1.5 mg/kg/injection, schedule: Q04DX003 (ip), vehicle: saline) was 111 % of control; the T/C (dose: 3.0 mg/kg/injection, schedule: Q04DX003 (ip), vehicle: saline) was 97 % of control.
With `Cc1[nH]c(=O)nc(Br)c1[N+](=O)[O-]`, the T/C by setting is: under setting [1], 101 % of control; under setting [5], 107 % of control; under setting [2], 97 % of control; under setting [6], 98 % of control; under setting [3], 95 % of control.
`CC(=O)N1C(C)C1(c1ccccc1)[n+]1ccccc1` (stereo unspecified): the T/C (dose: 12.0 mg/kg/injection, schedule: Q04DX003 (ip), vehicle: saline) is 98 % of control; the T/C (dose: 12.5 mg/kg/injection, schedule: Q01DX009 (ip), vehicle: saline) is 101 % of control; the T/C (dose: 25.0 mg/kg/injection, schedule: Q01DX009 (ip), vehicle: saline) is 92 % of control; the T/C (dose: 25.0 mg/kg/injection, schedule: Q04DX003 (ip), vehicle: saline) was 88 % of control; the T/C (dose: 50.0 mg/kg/injection, schedule: Q01DX009 (ip), vehicle: saline) was 101 % of control; the T/C (dose: 50.0 mg/kg/injection, schedule: Q04DX003 (ip), vehicle: saline) is 104 % of control.
As for `Nc1ccc(CCc2ccc(S(=O)(=O)F)cc2)cc1`, the T/C was 108 % of control (dose: 100.0 mg/kg/injection, schedule: Q01DX001 (ip), vehicle: saline); 103 % of control (dose: 200.0 mg/kg/injection, schedule: Q01DX001 (ip), vehicle: saline); 102 % of control (dose: 400.0 mg/kg/injection, schedule: Q01DX001 (ip), vehicle: saline).
As for `O=c1[nH]nc(-c2ccc3c(c2)Cc2ccccc2-3)c2ccccc12`, the T/C reads like this: (dose: 100.0 mg/kg/injection, schedule: Q01DX001 (ip), vehicle: carboxymethylcellulose (CMC)) 100 % of control; (dose: 200.0 mg/kg/injection, schedule: Q01DX001 (ip), vehicle: carboxymethylcellulose (CMC)) 94 % of control; (dose: 400.0 mg/kg/injection, schedule: Q01DX001 (ip), vehicle: carboxymethylcellulose (CMC)) 97 % of control.

(Values after PubChem BioAssay AID248 (DTP/NCI, 2004).)
